Experiment [1] can be described thus: Influence on growth, study on white free-range chickens. The experiment is classed as in vivo. As for the experimental part: This test is conducted under the same conditions by administering 2 kg of the composition of the invention per tonne to four batches of chickens.
The nature of experiment [2]: Influence on growth of chickens, open-label study versus monensin. Conditions: for Mean daily weight gain: composition at 1.5 kg per tonne. The experiment is classed as in vivo. As for the experimental part:
The parameters considered are the performance index and the mean daily weight gain. The composition of the invention is administered at the rate of 1.5 kg per tonne.

`CC[C@@]1([C@@H]2O[C@@H]([C@H]3O[C@@](O)(CO)[C@H](C)C[C@@H]3C)C[C@@H]2C)CC[C@H]([C@]2(C)CC[C@]3(C[C@H](O)[C@@H](C)[C@@H]([C@@H](C)[C@@H](OC)[C@H](C)C(=O)O)O3)O2)O1` [Control, monensin]: the “Feed conversion index (quantity of feed for obtaining 1 kg of chicken)” value is 2.979 in experiment [1] (General Mean), 2.810 in experiment [1] (Mean of the 1st third), 2.960 in experiment [1] (Mean of the 2nd third) and 3.167 in experiment [1] (Mean of the 3rd third). The “Mean weight” value in experiment [1] (General Mean) is listed as 2.116 kg; in experiment [1] (Mean of the 1st third), 2.265 kg; in experiment [1] (Mean of the 2nd third), 2.131 kg; in experiment [1] (Mean of the 3rd third), 2.054 kg; in experiment [2] (Table VI batch), 2.083 kg; in experiment [2] (Table VII batch) it was 2.169 kg. Also, the “Mean daily weight gain” value came to 25.46 g in experiment [1] (General Mean, composition at 2 kg per tonne); 26.30 g in experiment [1] (Mean of the 1st third); 25.48 g in experiment [1] (Mean of the 2nd third); 24.64 g in experiment [1] (Mean of the 3rd third); 25.32 g in experiment [2] (Table VI batch); 26.46 g in experiment [2] (Table VII batch). Besides, the results for the Performance index in experiment [2] (Table VI batch) and in experiment [2] (Table VII batch) were 87 and 95, respectively.

(Values after patent publication US20040241194A1, “Food supplement for animals” (Phytosynthese, priority 2001, published 2004).)
